Results as given in patent publication US20060069132A1, “Azolecarboxamide herbicides” (priority 2004, published 2006).

Legend:
[1] = system: large crabgrass; assay: Test A pre-/postemergence herbicide test; type: in vivo, Digitaria sanguinalis
In short: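 Both application timings were run together: directed soil spray over freshly planted seeds in sandy loam, and runoff spray onto 2–10 cm seedlings. Evaluation after ~10 days in greenhouse used a 0–100 visual scale versus untreated controls.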

[2] = system: chickweed; assay: Test C postemergence herbicide test; type: in vivo, Stellaria media
Protocol: At the same time, plants selected from these crop and weed species and also winter barley (Hordeum vulgare L.), blackgrass (Alopecurus myosuroides Huds.), canarygrass (Phalaris minor Retz.), chickweed (Stellaria media (L.) Vill.), downy bromegrass (Bromus tectorum L.), green foxtail (Setaria viridis (L.) Beauv.), Italian ryegrass (Lolium multiflorum Lam.), wheat (Triticum aestivum L.), wild oat (Avenafatua L.) and windgrass (Apera spica-venti (L.) Beauv.) were treated with postemergence applications of some of the test chemicals formulated in the same manner. Plants ranged in height from 2 to 18 cm (1- to 4-leaf stage) for postemergence treatments. Plant species in the flooded paddy test consisted of rice (Oryza sativa), smallflower umbrella sedge (Cyperus difformis L.), ducksalad (Heteranthera limosa (Sw.) Willd.) and barnyardgrass (Echinochloa crus-galli (L.) Beauv.) grown to the 2-leaf stage for testing. Treated plants and controls were maintained in a greenhouse for 12 to 14 days, after which time all species were compared to controls and visually evaluated. Plant response ratings, summarized in Table C, are based on a scale of 0 to 100 where 0 is no effect and 100 is complete control. A dash (-) response means no test result.

[3] = system: winter barley; assay: Test C postemergence herbicide test; type: in vivo, Hordeum vulgare; details: for Barley, Winter plant response rating: 500 g ai/ha, scale 0 to 100
In short: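 After a postemergence application at 1 to 4 leaves (plants 2–18 cm high), or at 2 leaves for barnyardgrass in flooded paddy, plants stayed in the greenhouse for 12 to 14 days. Damage was then judged visually relative to control plants, with 100 indicating complete control.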

[4] = system: blackgrass; assay: Test C postemergence herbicide test; type: in vivo, Alopecurus myosuroides; details: for Blackgrass plant response rating: 500 g ai/ha
In short: (§1)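 Weeds and wheat were sprayed after emergence, at a height of 2 to 18 cm (1–4 leaves), and paddy barnyardgrass was flooded and treated at two leaves. Assessment took place 12–14 days later in the greenhouse on a 0-to-100 visual control scale. A dash means no result was obtained.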

[5] = system: canarygrass; assay: Test C postemergence herbicide test; type: in vivo, Phalaris minor
In short: as §1

[6] = system: downy bromegrass; assay: Test C postemergence herbicide test; type: in vivo, Bromus tectorum
In short: as §1

[7] = system: green foxtail; assay: Test C postemergence herbicide test; type: in vivo, Setaria viridis
In short: as §1

[8] = system: Italian ryegrass; assay: Test C postemergence herbicide test; type: in vivo, Lolium multiflorum
In short: as §1

[9] = system: wheat; assay: Test C postemergence herbicide test; type: in vivo, Triticum aestivum
In short: as §1

[10] = system: wild oat; assay: Test C postemergence herbicide test; type: in vivo, Avenafatua
In short: as §1

[11] = system: windgrass; assay: Test C postemergence herbicide test; type: in vivo, Apera spica-venti
In short: as §1

[12] = Postemergence, 500 g ai/ha, 0 to 100 scale, 0 no effect, 100 complete control
[13] = Postemergence, 2000 g ai/ha, 0 to 100 scale, 0 no effect, 100 complete control
[14] = Preemergence, 500 g ai/ha, visual rating, 0 to 100 scale (0 no effect, 100 complete control)
[15] = Preemergence, 2000 g ai/ha, visual rating, 0 to 100 scale (0 no effect, 100 complete control)
[16] = Postemergence, 250 g ai/ha, scale 0 to 100, 0 no effect, 100 complete control
[17] = postemergence, 125 g ai/ha, scale 0 to 100
[18] = postemergence, 62 g ai/ha, scale 0 to 100
[19] = postemergence, 125 g ai/ha, scale 0 to 100 (0 no effect, 100 complete control)
[20] = postemergence, 62 g ai/ha, scale 0 to 100 (0 no effect, 100 complete control)
[21] = Postemergence, 500 g ai/ha, scale 0 to 100, 0 no effect, 100 complete control

Structure (SMILES)	Crabgrass, Large plant response rating [1, 12]	Plant response rating, Crabgrass, Large [1, 13]	Crabgrass, Large plant response rating [1, 15]	Barley, Winter plant response rating ([3]; Postemergence)	Plant response rating, Barley, Winter [3, 16]	Plant response rating, Barley, Winter [3, 19]	Plant response rating, Barley, Winter [3, 20]	Blackgrass plant response rating ([4]; Postemergence, scale 0 to 100)	Plant response rating, Blackgrass [4, 16]	Plant response rating, Blackgrass [4, 17]	Plant response rating, Blackgrass [4, 18]	Plant response rating, Canarygrass [5, 16]	Plant response rating, Canarygrass [5, 21]	Plant response rating, Canarygrass [5, 17]	Plant response rating, Canarygrass [5, 18]	Plant response rating, Bromegrass, Downy [6, 16]	Plant response rating, Bromegrass, Downy [6, 21]	Plant response rating, Bromegrass, Downy [6, 17]	Plant response rating, Bromegrass, Downy [6, 18]	Plant response rating, Foxtail, Green [7, 16]	also measured
CCn1nc(C(C)(C)C)cc1C(=O)Nc1cccc(C#N)c1 [Compound 139]	0	30	75																		Crabgrass, Large plant response rating [1, 14]: 45; Plant response rating, Chickweed [2, 16]: 80; Plant response rating, Chickweed [2, 17]: 70; Plant response rating, Chickweed ([2]; postemergence, 31 g ai/ha, scale 0 to 100): 0; Plant response rating, Chickweed [2, 18]: 0
CCn1nc(C(C)(C)C)cc1C(=O)Nc1cccc(C(=O)NC2CC2)n1 [Compound 146]	15	55	80																		Crabgrass, Large plant response rating [1, 14]: 70; Plant response rating, Chickweed [2, 16]: 100; Plant response rating, Chickweed [2, 17]: 80; Plant response rating, Chickweed [2, 18]: 10
C#CCOc1cccc(NC(=O)c2cc(C(C)(C)C)nn2CC)c1 [Compound 411]				40	35	35	30	70	65	65	50	65	65	60	60	45	45	40	40	65	Plant response rating, Foxtail, Green [7, 21]: 70; Plant response rating, Foxtail, Green [7, 17]: 65; Plant response rating, Foxtail, Green [7, 18]: 60; Plant response rating, Ryegrass, Italian [8, 21]: 65; Plant response rating, Ryegrass, Italian [8, 17]: 60; Plant response rating, Ryegrass, Italian [8, 18]: 45; Plant response rating, Wheat [9, 21]: 55; Plant response rating, Wheat [9, 17]: 35; Plant response rating, Wheat [9, 18]: 35; Plant response rating, Oat, Wild [10, 21]: 65; Plant response rating, Oat, Wild [10, 17]: 60; Plant response rating, Oat, Wild [10, 18]: 60; Plant response rating, Windgrass [11, 21]: 65; Plant response rating, Windgrass [11, 17]: 55; Plant response rating, Windgrass [11, 18]: 40
C=CCOc1cccc(NC(=O)c2cc(C(C)(C)C)nn2CC)c1 [Compound 412]				50	40	35	30	65	65	45	45	60	60	45	45	55	60	45	40	65	Plant response rating, Foxtail, Green [7, 21]: 65; Plant response rating, Foxtail, Green [7, 17]: 60; Plant response rating, Foxtail, Green [7, 18]: 45; Plant response rating, Ryegrass, Italian [8, 21]: 60; Plant response rating, Ryegrass, Italian [8, 17]: 45; Plant response rating, Ryegrass, Italian [8, 18]: 40; Plant response rating, Wheat [9, 21]: 50; Plant response rating, Wheat [9, 17]: 35; Plant response rating, Wheat [9, 18]: 35; Plant response rating, Oat, Wild [10, 21]: 70; Plant response rating, Oat, Wild [10, 17]: 65; Plant response rating, Oat, Wild [10, 18]: 60; Plant response rating, Windgrass [11, 21]: 65; Plant response rating, Windgrass [11, 17]: 45; Plant response rating, Windgrass [11, 18]: 40
CCc1nn(C(C)(C)C)nc1C(=O)Nc1cccc(C(=O)NC2CC2)c1 [Compound 417]	30	85	95	35	30	20	20	60	60	50	35	45	55	40	30	50	65	40	35	60	Crabgrass, Large plant response rating ([1]; preemergence, 500 g ai/ha, visual injury, 0 to 100 scale (0 no effect, 100 complete control)): 75; Plant response rating, Foxtail, Green [7, 21]: 65; Plant response rating, Foxtail, Green [7, 17]: 55; Plant response rating, Foxtail, Green [7, 18]: 50; Plant response rating, Ryegrass, Italian [8, 21]: 60; Plant response rating, Ryegrass, Italian [8, 17]: 40; Plant response rating, Ryegrass, Italian [8, 18]: 35; Plant response rating, Wheat [9, 21]: 35; Plant response rating, Wheat [9, 17]: 20; Plant response rating, Wheat [9, 18]: 20; Plant response rating, Oat, Wild [10, 21]: 60; Plant response rating, Oat, Wild [10, 17]: 40; Plant response rating, Oat, Wild [10, 18]: 35; Plant response rating, Windgrass [11, 21]: 55; Plant response rating, Windgrass [11, 17]: 40; Plant response rating, Windgrass [11, 18]: 40
